In the experiment the test system is 349418-098-R-PDC complex spheroid viability. Nature of the experiment: Anticancer human tumor 349418-098-R-PDC patient-derived lung adenocarcinoma cell line growth inhibition. The note with it: for viability, T/C: stronger effect = lower value. In outline:
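Multicellular complex spheroids of tumor cells with human endothelial cells (HUVEC) and mesenchymal stem cells; the LSD1 inhibitor iadademstat was combined with standard-of-care or investigational agents. Top concentration at or near clinical Cmax, half-log dilutions; final DMSO ≤0.25%.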

Setting [1] is: curve of first compound, second compound 0.1 µM.
The mark [2] stands for this setting: curve of first compound, second compound 0.316 µM.
[3] abbreviates: curve of first compound, second compound 1 µM.
Setting [4] is: curve of first compound, second compound 3.16 µM.
The mark [5] stands for this setting: curve of first compound, second compound 10 µM.
The mark [6] stands for this setting: second compound 0.1 µM, first compound 0.00949 µM.
The mark [7] stands for this setting: second compound 0.1 µM, first compound 0.03 µM.
Setting [8] is: second compound 0.1 µM, first compound 0.0949 µM.
Where [9] appears, read: second compound 0.1 µM, first compound 0.3 µM.
Setting [10] is: second compound 0.1 µM, first compound 0.949 µM.
The mark [11] stands for this setting: second compound 0.1 µM, first compound 3 µM.
The mark [12] stands for this setting: second compound 0.316 µM, first compound 0.00949 µM.
[13] abbreviates: second compound 0.316 µM, first compound 0.03 µM.
Setting [14] is: second compound 0.316 µM, first compound 0.0949 µM.
Setting [15] is: second compound 0.316 µM, first compound 0.3 µM.
The mark [16] stands for this setting: second compound 0.316 µM, first compound 0.949 µM.
Setting [17] is: second compound 0.316 µM, first compound 3 µM.
Setting [18] is: second compound 1 µM, first compound 0.00949 µM.
Where [19] appears, read: second compound 1 µM, first compound 0.03 µM.
Setting [20] is: second compound 1 µM, first compound 0.0949 µM.
Where [21] appears, read: second compound 1 µM, first compound 0.3 µM.
Where [22] appears, read: second compound 1 µM, first compound 0.949 µM.
[23] abbreviates: second compound 1 µM, first compound 3 µM.
The mark [24] stands for this setting: second compound 3.16 µM, first compound 0.00949 µM.
Where [25] appears, read: second compound 3.16 µM, first compound 0.03 µM.
Setting [26] is: second compound 3.16 µM, first compound 0.0949 µM.
Setting [27] is: second compound 3.16 µM, first compound 0.3 µM.
[28] abbreviates: second compound 3.16 µM, first compound 0.949 µM.
Setting [29] is: second compound 3.16 µM, first compound 3 µM.
[30] abbreviates: second compound 10 µM, first compound 0.00949 µM.
[31] abbreviates: second compound 10 µM, first compound 0.03 µM.
Setting [32] is: second compound 10 µM, first compound 0.0949 µM.
[33] abbreviates: second compound 10 µM, first compound 0.3 µM.
Where [34] appears, read: second compound 10 µM, first compound 0.949 µM.
[35] abbreviates: second compound 10 µM, first compound 3 µM.

SMILES strings stand for the structures. Values joined by “and” are separate entries in the source; they are usually repeats but may differ in a detail not shown here. Equal values may be shown once.
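Further: spheroids exposed to agents for seven days before readout.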
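Wherever viability, T/C is given: 100% = DMSO vehicle control wells.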

The term IC50 denotes the concentration at which inhibition is half-maximal. Broadly, the viability, T/C is the result in the treated group divided by that in the control group, in per cent. As to `NS(=O)(=O)OCC1CC(n2ccc3c(NC4CCc5ccccc54)ncnc32)CC1O` (centres undefined) + NC1CC1c1ccc(-c2cccc(O)c2)cc1, the 50% inhibitory concentration (IC50) is, setting by setting: under setting [1], 64.1 nM; under setting [2], 59.1 nM; under setting [3], 59.6 nM; under setting [4], 60.7 nM; under setting [5], 38 nM. The viability, T/C under setting [6] is 116%; the viability, T/C under setting [7] was 86.6%; the viability, T/C under setting [8] was 30.5%; the viability, T/C under setting [9] is 11.9%; the viability, T/C under setting [10] was 5.29%; the viability, T/C under setting [11] was 4.99%. In addition, the viability, T/C reads like this: under setting [12], 120%; under setting [13], 82.3%; under setting [14], 26.6%; under setting [15], 12.4%; under setting [16], 5.84%; under setting [17], 4.12%. The viability, T/C runs as follows: under setting [18], 124%; under setting [19], 77%; under setting [20], 31.9%; under setting [21], 11.3%; under setting [22], 5.2%; under setting [23], 4.27%. The viability, T/C under setting [24] was 124%; the viability, T/C under setting [25] was 81.6%; the viability, T/C under setting [26] was 29.2%; the viability, T/C under setting [27] was 12.2%; the viability, T/C under setting [28] is 5.08%; the viability, T/C under setting [29] was 4.44%. In addition, the viability, T/C reads like this: under setting [30], 106%; under setting [31], 55.5%; under setting [32], 28.1%; under setting [33], 9.97%; under setting [34], 4.94%; under setting [35], 2.73%.

On to `NC1CCC(NC2CC2c2ccccc2)CC1` (centres undefined), for which the viability, T/C was 106% (2×) and 102% (compound 0.316 µM); 103% [middle of 25 runs] (compound 3.16 µM). Further, the IC50 (compound alone, run of 01/18/2022) was > 10000 nM.

For `NS(=O)(=O)OCC1CC(n2ccc3c(NC4CCc5ccccc54)ncnc32)CC1O` (centres undefined) + NC1CCC(NC2CC2c2ccccc2)CC1, the IC50 is, setting by setting: under setting [1], 67.2 nM; under setting [2], 86.6 nM; under setting [3], 93 nM; under setting [4], 82.3 nM; under setting [5], 66.6 nM. For the same molecule, the viability, T/C reads like this: under setting [6], 99.3%; under setting [7], 94.8%; under setting [8], 30.6%; under setting [9], 15.2%; under setting [10], 8.16%; under setting [11], 4.47%. In addition, the viability, T/C reads like this: under setting [12], 118%; under setting [13], 100%; under setting [14], 44.5%; under setting [15], 16.1%; under setting [16], 7.56%; under setting [17], 4.71%. The viability, T/C under setting [18] was 111%; the viability, T/C under setting [19] was 104%; the viability, T/C under setting [20] was 47.1%; the viability, T/C under setting [21] is 17.1%; the viability, T/C under setting [22] was 6.19%; the viability, T/C under setting [23] was 4.32%. Moreover, the viability, T/C reads like this: under setting [24], 108%; under setting [25], 103%; under setting [26], 40.6%; under setting [27], 22.6%; under setting [28], 7.16%; under setting [29], 4.58%. The viability, T/C under setting [30] was 84.9%; the viability, T/C under setting [31] was 88.7%; the viability, T/C under setting [32] is 33.6%; the viability, T/C under setting [33] is 16.6%; the viability, T/C under setting [34] is 6.64%; the viability, T/C under setting [35] was 4.12%.

`CC(C)c1c(-c2ccccc2)nc2c(C#N)c[nH]n2c1=O` + NC1CC1c1ccc(-c2cccc(O)c2)cc1: the IC50 runs as follows: under setting [1], > 10000 nM; under setting [2], > 10000 nM; under setting [3], > 10000 nM; under setting [4], > 10000 nM; under setting [5], > 10000 nM. Besides, the viability, T/C is 126% (second compound 0.1 µM, first compound 0.0316 µM); 122% (second compound 0.1 µM, first compound 0.1 µM); 119% (second compound 0.1 µM, first compound 0.316 µM); 106% (second compound 0.1 µM, first compound 1 µM); 111% (second compound 0.1 µM, first compound 3.16 µM); 80.7% (second compound 0.1 µM, first compound 10 µM). Also, the viability, T/C is 95.6% (second compound 0.316 µM, first compound 0.0316 µM); 113% (second compound 0.316 µM, first compound 0.1 µM); 118% (second compound 0.316 µM, first compound 0.316 µM); 106% (second compound 0.316 µM, first compound 1 µM); 98.7% (second compound 0.316 µM, first compound 3.16 µM); 81.8% (second compound 0.316 µM, first compound 10 µM). Also, the viability, T/C by setting is: (second compound 1 µM, first compound 0.0316 µM) 114%; (second compound 1 µM, first compound 0.1 µM) 103%; (second compound 1 µM, first compound 0.316 µM) 120%; (second compound 1 µM, first compound 1 µM) 99.2%; (second compound 1 µM, first compound 3.16 µM) 95.7%; (second compound 1 µM, first compound 10 µM) 102%. The viability, T/C was 104% (second compound 3.16 µM, first compound 0.0316 µM); 106% (second compound 3.16 µM, first compound 0.1 µM); 111% (second compound 3.16 µM, first compound 0.316 µM); 100% (second compound 3.16 µM, first compound 1 µM); 104% (second compound 3.16 µM, first compound 3.16 µM); 91.2% (second compound 3.16 µM, first compound 10 µM). For the same molecule, the viability, T/C (second compound 10 µM, first compound 0.0316 µM) was 86.1%; the viability, T/C (second compound 10 µM, first compound 0.1 µM) is 82.4%; the viability, T/C (second compound 10 µM, first compound 0.316 µM) is 86.7%; the viability, T/C (second compound 10 µM, first compound 1 µM) is 75.3%; the viability, T/C (second compound 10 µM, first compound 3.16 µM) is 62.5%; the viability, T/C (second compound 10 µM, first compound 10 µM) was 64.8%.

Regarding `O=C(C=Cc1cccc(S(=O)(=O)Nc2ccccc2)c1)NO`, the viability, T/C by setting is: (compound 0.00949 µM) 81.2% and 75%; (compound 0.03 µM) 71.6% and 70.5%; (compound 0.0949 µM) 58.6% and 19.1%; (compound 0.3 µM) 17.8% and 2.96%; (compound 0.949 µM) 3.74% and 0.75%. Besides, the IC50 (curve of compound) is 118 nM and 52.7 nM.

For the origin of these results see PubChem BioAssay AID1918936 (Molecular Pharmacology Branch, DTP, NCI, 2023).
